Measured values: patent publication US20220290184A1, “DONOR PIGS FOR XENOTRANSPLANTATION” (NZENO LIMITED, priority 2019, published 2022)
Entries after “also recorded” stand apart in the source; their conditions may differ. Marks after values point to notes of the source that are not given here. Where a SMILES comes first, the peptide text is derived from it. The star is where a group is joined. Cbz = O=C(OCc1ccccc1)*

How the values were obtained:
Type in all cases: cell-based, pig
[1] = test system: CMAH gene; assay: CRISPR activity assay with TIDE analysis, CMAH target locus
Description: Cell culture and transfection was performed as described in Example 4 section 4.1.2.
The CRISPR activity assay was performed as described in Example 4 section 4.1.3 using the CMAH-specific CRISPRs (68rev, 165fw) and CMAH primers (CMAHF-[…] (SEQ ID NO: 48) and CMAHR-[…]3 (SEQ ID NO: 49)).

[2] = test system: porcine SCNT embryos; assay: Zona-free somatic cell nuclear transfer (SCNT) embryo development in vitro
Description: Ovaries were sourced from pre-pubertal gilts slaughtered at the Ruakura abattoir (AgResearch, New Zealand). Cumulus-oocyte complexes (COCs) were recovered by follicular aspiration and matured in vitro (IVM) for 44 h. Two IVM systems to mature porcine oocytes were compared: biphasic (ESOF and LSOF) IVM1/2 medium containing 1 mM dibutyryl cyclic adenosine monophosphate for the first 20-24 h (Bagg et al., 2006; Somfai and Hirao, 2011) and FLI medium supplemented with FGF2, LIF and IGF1 for the entire IVM period (Yuan et al., 2017).
COCs were denuded by vortexing with 0.1% hyaluronidase (Sigma) at 2000 rpm for about 60-90 sec. Oocytes were washed twice in HEPES-buffered TCM199 medium (H199)+10% FCS. Denuded oocytes were incubated for 10 min with 0.2M sucrose in H199+10% FCS. Oocytes that maintained a regular, round shape (but smaller diameter) along with a first polar body (1PB) were selected for use.
For zona-free SCNT, pronase was used to remove the zona pellucida. Oocytes were washed thoroughly before staining DNA with 5 μg/mL H33342 plus 7.5 μg/mL cytochalasin B (all Sigma) for 5 min. A 24 μm outer diameter blunt-ended pipette was used for UV-assisted enucleation of metaphase II stage oocytes at 35° C.
Donor cells (e.g. NZK1 kidney fibroblasts) were trypsinised to a single cell suspension after 5-7 days in medium with 0.5% FCS. Single cells were adhered to each enucleated cytoplast with the aid of 20 μg/mL phytohemagglutinin in H199+3 mg/mL BSA. […] Following fusion, reconstructed embryos were held in embryo culture medium without Ca+10% FCS+5 μg/mL cytochalasin B at 38.5° C. in 5% CO2 in air for 2-4 h before activation.
To maintain high levels of maturation promoting factor-cyclin B complex in oocytes aiding nuclear reprogramming, some experiments compared the addition of 5 μM of the proteasome inhibitor MG132 (Sigma). This was added to media formulations from the time of sucrose selection of oocytes until activation of NT reconstructed embryos (Le Bourhis et al., 2010).
Activation of reconstructed NT embryos was initiated with three direct current pulses of 1.0-1.5 kV/cm for 80 μs each, in buffer containing 0.1 mM calcium, ˜50-52 h after the start of IVM.
Within 5 min of electrical stimulation, reconstructed embryos were transferred to culture medium (e.g. ESOF) supplemented with 2 mM 6-dimethylaminopurine+5 μg/mL cytochalasin B and cultured individually in 5 μL drops for 3 h at 38.5° C. In 5% CO2. Afterwards, embryos were washed thoroughly in HEPES SOF before in vitro culture for 6-7 days. […] Embryo development was assessed on Day 6 or 7 and the numbers of nuclei in resulting blastocysts determined in selected experiments.

[3] = test system: parthenogenetically activated porcine oocytes; assay: Parthenogenetic oocyte activation (PG) embryo development in vitro; settings: PG embryos; 5 μM MG132 from oocyte selection until activation
[4] = SCNT embryos, 5 μM MG132 from oocyte selection until activation

Row | Compound | CRISPR activity compared to the second CMAH CRISPR 165fw [1] | Benefit in terms of in vitro development following SCNT or PG ([2]; 5 μM MG132 between oocyte selection and activation, preliminary experiment) | Blastocyst Development Day 7 [2, 4] | Cleavage [2, 4] | Fusion [2, 4] | Blastocyst Development Day 7 [3] | Cleavage [3]
1 | 68rev: guide RNA targeting exon 3 of CMAH, TAAGAATAAGAGCCGCCTGA (SEQ ID NO: 46) (listed as DNA, chemistry not given here) | higher activity |  |  |  |  |  | 
2 | CC(C)C[C@@H](C=O)NC(=O)[C@H](CC(C)C)NC(=O)[C@H](CC(C)C)NC(=O)OCc1ccccc1 [MG132] (Cbz-Leu-Leu-Leu-aldehyde) |  | unable to show any benefit; also recorded: showed no benefit | 11%^b | 99% | 49% | 23% | 100%
